From paper PMC7450938, “Prenatal to early postnatal neurotrophic treatment prevents Alzheimer-like behavior and pathology in mice” (Alzheimer's Research & Therapy, 2020)

Assays:
3xTg-AD mice = settings: chronic treatment, moderate and severe stages of the pathology; cited from earlier work
Description: (§1) Chronic treatment with P021 ...

aged Fisher rats = settings: oral administration; cited from earlier work
Description: as §1

tau = experiment: Western blots of total and hyperphosphorylated tau in hippocampus; format: in vivo, mouse
Description: (§2) We treated 2- to 3-month-old pregnant 3xTg-AD and WT mothers with compound P021 in mouse chow, or with vehicle feed as control at E8 until their offspring/pups reached PND21, at which point the offspring were separated and put on standard mouse chow (Fig. 1). Treatment was administered as 60 nmol peptide/g formulated diet (Research Diets; New Brunswick, NJ, USA). The vehicle-treated control animals received the same diet but without the peptide. On average, each mouse consumed ~ 2.7 g diet/day.
The animals were anesthetized with an overdose of sodium pentobarbital (125 mg/kg) and transcardially perfused with 0.1 M phosphate-buffered saline (PBS). After perfusion, the brains were removed from the skull immediately. The left hemisphere was dissected into hippocampus, cerebral cortex, cerebellum, and brain stem; immediately frozen on dry ice; and then stored at − 80 °C for biochemical analysis.
(§3) The tissue from the left cerebral hemisphere from each mouse stored at− 80 °C was homogenized in a Teflon-glass homogenizer to generate 10% (w/v) homogenate. The pre-chilled homogenization buffer contained 50 mM Tris–HCl (pH 7.4), 8.5% sucrose, 2 mM EDTA, 2 mM EGTA, 10 mM β-mercaptoethanol plus the following protease and phosphatase inhibitors: 0.5 mM AEBSF, 10 μg/mL aprotinin, 10 μg/mL leupeptin, 4 μg/mL pepstatin, 5 mM benzamidine, 20 mM β-glycerophosphate, 50 mM sodium fluoride, 1 mM sodium orthovanadate, and 100 nM okadaic acid. Each homogenate was boiled in 2× Laemmli sample buffer for 5 min, and protein concentration was measured by PierceTM 660-nm protein assay (Thermo Scientific; Rockford, IL, USA).
(§4) The samples were subjected to 10% SDS-PAGE and electro-transferred onto Immobilon-P membranes (EMD Millipore; Billerica, MA, USA). The blots were then probed with primary antibodies (Table 1) and developed with the corresponding HRP-conjugated secondary antibody and enhanced chemiluminescence (Pierce Biotechnology, Rockford, IL, USA). Densitometric quantification of protein bands in Western blots was analyzed using Multi Gauge version 3.0 software (FUJIFILM North America; Valhalla, NY, USA).

APP = experiment: Western blots of p-APP (Thr668) in hippocampus; format: in vivo, mouse; settings: 22-month-old 3xTg-AD mice, normalized with GAPDH, n = 4, P021 diet E8-PND21
Description: as §2
The tissue from the left cerebral hemisphere from each mouse stored at− 80 °C was homogenized in a Teflon-glass homogenizer to generate 10% (w/v) homogenate. […] Each homogenate was boiled in 2× Laemmli sample buffer for 5 min, and protein concentration was measured by PierceTM 660-nm protein assay (Thermo Scientific; Rockford, IL, USA).
The samples were subjected to 10% SDS-PAGE and electro-transferred onto Immobilon-P membranes (EMD Millipore; Billerica, MA, USA). […] Densitometric quantification of protein bands in Western blots was analyzed using Multi Gauge version 3.0 software (FUJIFILM North America; Valhalla, NY, USA).

Aβ plaques = experiment: Thioflavin-S-positive plaque load; format: in vivo; settings: subiculum, 22-month-old 3xTg-AD mice; 6 sections per mouse, n = 4 mice; P021 diet E8-PND21
Description: as §2
Thioflavin-S–positive (TS+) plaque load was quantified on every 12th section (roughly six sections per set) of four animals from 22-month-old groups. A modified thioflavin-S staining protocol was used as follows. Free-floating brain sections were washed in large volumes of distilled water, incubated in 0.25% KMnO4 for 4–5 min, washed with water, and treated with a solution of 1% K2S2O5 and 1% oxalic acid for 40–60 s until the brown color was completely washed out. Sections were then incubated with 0.05% thioflavin-S in water in the dark for 8 min, followed by differentiation in 80% ethanol twice for 1 min each. […] The images were taken by using a Nikon 90i fluorescent microscope, threshold using ImageJ (v.1.46r), and TS+ plaque load was quantified in the hippocampus CA1 and subiculum areas.

GFAP = GFAP immunofluorescence, CA1; format: in vivo, mouse; settings: P021 diet E8-PND21
Description: as §2
The complete right hemisphere was immersion-fixed in 4% paraformaldehyde in 0.1 M PBS for 24–48 h, followed by cryoprotection in a 30% sucrose solution at 4 °C overnight. Later, the 40-μm-thick sagittal sections were cut on a freezing microtome. […]
Immunofluorescence staining was performed on free-floating sections, and every 12th brain section was chosen for densitometry and quantification. For immunohistochemical quantification, six brain sections of four animals per group were analyzed. All stainings for fluorescence-intensity quantification were carried out under identical conditions, including all tissue samples for a particular staining processed at the same time, and experimental and control sections photographed under identical settings. […]

[1] = commercial service (APREDICA, Watertown, MA); cited from earlier work
[2] = test system: NR1, NR2A, NR2B, GluR1, GluR2&3, p-CREB; experiment: Western blots of glutamate receptors and CREB in hippocampus; format: in vivo, mouse
Description: as §2, §3, §4

[3] = cited from earlier work
Description: A central objective of the field of dementia research is to inhibit, or to at least effectively modify, the course of AD, but at present, no effective treatment or cure for AD is available. CNTF is a pluripotent neurotrophic factor that has a potent effect on the development and maintenance of the nervous system, inducing neuronal survival and differentiation by stimulating gene expression of sensory, sympathetic, and motor neurons. However, the clinical therapeutic usage of recombinant neurotrophic factors is limited because of the insurmountable hurdles of unfavorable pharmacokinetic ...

Iba-1, GFAP = experiment: Western blots of Iba-1 and GFAP in hippocampus; format: in vivo, mouse; settings: for increase of GFAP: 3xTg-AD mice, P021 diet E8-PND21, n = 3-4/group; for expression of Iba-1: among groups
Description: as §2, §3, §4

[4] = 4-month-old 3xTg-AD mice, P021 diet E8-PND21, vs 3xTg-Vh, n = 4
[5] = 22-month-old 3xTg-AD mice, P021 diet E8-PND21
[6] = 22-month-old 3xTg-AD mice, P021 diet E8-PND21, vs 3xTg-Vh, n = 4
[7] = 4 months, 3xTg-AD mice, P021 diet E8-PND21, n = 3-4/group
[8] = 22 months, 3xTg-AD mice, P021 diet E8-PND21, n = 3-4/group

Substance: Ac-DGGL^AG-NH2 [P021, 4-mer CNTF small molecule peptide mimetic to which adamantylated glycine was added at the C-terminal]
- tau pathology (3xTg-AD mice): significantly reduced
- cognitive aging (aged Fisher rats): could rescue cognitive aging
- human-specific tau (antibody 43D) (tau; [4]): decreased
- tau hyperphosphorylation at Ser202/Thr205 (antibody AT8) (tau; [4]): decrease
- total tau (antibody R134d) (tau; [4]): decreased
- human tau (antibody 43D) (tau; [5]): did not change significantly
- hyperphosphorylated tau (antibody pT212) (tau; [5]): did not change significantly
- tau hyperphosphorylation at Ser202/Thr205 (antibody AT8) (tau; [6]): decreased
- tau hyperphosphorylation at Ser-396/404 (antibody PHF-1) (tau; [6]): decreased
- total tau (antibody R134d) (tau; [6]): only an insignificant decrease
- level of phosphorylation of APP at Thr668 (APP): rescued
- plaque burden by thioflavin-S staining (Aβ plaques): a significant decrease
- astrocyte morphology at high magnification (GFAP; CA1, 22-month-old 3xTg-AD mice, 3xTg-Vh astrocytes amoeboid): ramified with long processes and small cell body (resting phenotype)
- GFAP immunoreactivity (GFAP; CA1 region, 22-month-old 3xTg-AD mice): rescued
- crossing of the blood-brain barrier [1]: enough P021 crossed the BBB to exert its effect in the brain
- level of GluR1 [2, 7]: increased
- level of NR1 [2, 7]: increased
- level of NR2A [2, 7]: increased
- level of phosphorylated CREB (p-CREB) [2, 7]: increased
- level of GluR2&3 ([2]; 4 months, among groups): no significant changes
- level of NR2B ([2]; 4 months, among groups): no significant changes
- level of NR1 [2, 8]: increased
- level of NR2A [2, 8]: increased
- level of p-CREB [2, 8]: increased
- level of GluR1 ([2]; 22 months, among groups): no significant changes
- level of GluR2 and 3 ([2]; 22 months, among groups): no significant changes
- level of NR2B ([2]; 22 months, among groups): no significant changes
- BBB permeability [3]: BBB-permeable
- solubility in water [3]: water-soluble
- systemic adverse effects [3]: does not induce the systemic adverse effects associated with recombinant CNTF or BDNF
- pharmacokinetic properties ([3]; oral administration): suitable pharmacokinetic properties for oral administration
- increase of GFAP (Iba-1, GFAP; 4 months): rescued
- expression of Iba-1 (Iba-1, GFAP; 4 months): no significant changes
- increase of GFAP (Iba-1, GFAP; 22 months): rescued
- expression of Iba-1 (Iba-1, GFAP; 22 months): no significant changes
